The target of this experiment is T1, zebrafish CPA6 (zCPA6) (Danio rerio, UniProt E7F2H8).
T1 construct: full-length cDNA in pcDNA3.1, untagged, expressed in HEK293T cells; mature 65 kDa with EGFP
T1 sequence (E7F2H8 133-442): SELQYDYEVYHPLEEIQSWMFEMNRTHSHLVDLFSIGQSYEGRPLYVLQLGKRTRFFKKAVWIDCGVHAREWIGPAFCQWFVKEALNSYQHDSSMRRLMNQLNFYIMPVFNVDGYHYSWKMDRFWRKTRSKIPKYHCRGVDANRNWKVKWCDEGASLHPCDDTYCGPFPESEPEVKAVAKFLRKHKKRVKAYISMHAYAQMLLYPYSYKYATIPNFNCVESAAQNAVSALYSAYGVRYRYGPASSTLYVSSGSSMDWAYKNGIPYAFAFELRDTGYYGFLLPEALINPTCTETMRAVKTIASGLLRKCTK
Put plainly: decrease in absorbance at […] nm, ECM-bound enzyme of transfected HEK293T cells against untransfected wells. Format: biochemical. The settings on record: 0.5 mM substrate, 50 mM Tris-HCl pH 7.5, 150 mM NaCl, 37 °C; untagged enzyme.

With `O=C(C=Cc1ccco1)N[C@@H](Cc1ccccc1)C(=O)N[C@@H](Cc1ccccc1)C(=O)O` [fa-FF], the “decrease in absorbance at 336 nm, ECM-bound enzyme of transfected HEK293T cells” value is “fa-FF and fa–RL were most rapidly cleaved”.
With `CC(C)C[C@H](NC(=O)[C@H](CCCNC(=N)N)NC(=O)C=Cc1ccco1)C(=O)O` [fa-RL, fa–RL], the “decrease in absorbance at 336 nm, ECM-bound enzyme of transfected HEK293T cells” value is “fa-FF and fa–RL were most rapidly cleaved”.

The values above are taken from article PMC2945764, “Carboxypeptidase A6 in Zebrafish Development and Implications for VIth Cranial Nerve Pathfinding” (PLoS ONE, 2010).
